Measured values: PMC11931604 (Drug Development Research, 2025)

Biological target: D112_2N-mutant H3 HA (A/X-31) (Influenza A virus, UniProt P03438, D457N)
Format: cell-based, influenza A/H3N2 virus

CC1CCC2(CC1)SC(C)C(=O)N2NC(=O)c1ccc(C(C)(C)C)cc1 (stereo not shown) [Compound 2c, 4‐(tert‐Butyl)‐N‐(2,8‐dimethyl‐3‐oxo‐1‐thia‐4‐azaspiro[4.5]decan‐4‐yl)benzamide]
inhibition of membrane fusion in cells expressing D112_2N-substituted HA: no inhibition
